Consider 38 compounds from ChEMBL document CHEMBL1201862, “PubChem BioAssay data set” (2004).

The subject of one assay is Streptococcus. The assay is described as follows: Group A Streptococcus viability loss, dose response, counter-screen for streptokinase expression inhibitor project, luminescence, BacTiterGlo (AID 1915).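 Further: potency for reduction of bacterial viability or growth.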 It counts as functional, organism-based. On the technique in general: Counterscreens check selectivity or assay interference.
For assay [1], the system named is Streptococcus sp. 'group A'. The assay can be described thus: growth inhibition of control SK(-) GAS strain, dose response, counter-screen for streptokinase expression inhibitor project, luminescence, kanamycin, BacTiterGlo, confirmation (AID 1900). The assay is classed as functional, organism-based.
For another assay, the target named is T1, Streptokinase A (Streptococcus pyogenes serotype M1, UniProt P10520).
T1 sequence (P10520 whole entry): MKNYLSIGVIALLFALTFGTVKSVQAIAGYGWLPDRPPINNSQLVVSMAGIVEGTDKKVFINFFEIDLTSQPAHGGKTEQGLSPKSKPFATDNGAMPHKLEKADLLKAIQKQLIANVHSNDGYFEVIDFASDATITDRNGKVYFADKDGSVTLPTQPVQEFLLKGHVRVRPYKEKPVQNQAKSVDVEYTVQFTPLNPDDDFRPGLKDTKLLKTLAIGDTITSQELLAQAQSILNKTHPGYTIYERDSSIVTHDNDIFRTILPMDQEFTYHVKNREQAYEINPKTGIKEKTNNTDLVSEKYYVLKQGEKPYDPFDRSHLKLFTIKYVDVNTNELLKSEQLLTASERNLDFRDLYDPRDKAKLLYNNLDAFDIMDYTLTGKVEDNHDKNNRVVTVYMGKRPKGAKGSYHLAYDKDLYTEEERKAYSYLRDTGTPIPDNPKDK
The assay can be described thus: S. pyogenes streptokinase expression inhibitors, potency, dose response, plasminogen activation absorbance, OD405 (AID 1914).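 Further: secreted streptokinase activity via plasminogen activation per viability signal from cell pellet.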 The assay is classed as functional, Streptococcus pyogenes M1 GAS.

Assay [2] concerns the target T2, Corticotropin-releasing factor receptor 2/Corticotropin-releasing factor-binding protein (Homo sapiens, UniProt P24387+Q13324).
T2 sequence (Q13324 whole entry): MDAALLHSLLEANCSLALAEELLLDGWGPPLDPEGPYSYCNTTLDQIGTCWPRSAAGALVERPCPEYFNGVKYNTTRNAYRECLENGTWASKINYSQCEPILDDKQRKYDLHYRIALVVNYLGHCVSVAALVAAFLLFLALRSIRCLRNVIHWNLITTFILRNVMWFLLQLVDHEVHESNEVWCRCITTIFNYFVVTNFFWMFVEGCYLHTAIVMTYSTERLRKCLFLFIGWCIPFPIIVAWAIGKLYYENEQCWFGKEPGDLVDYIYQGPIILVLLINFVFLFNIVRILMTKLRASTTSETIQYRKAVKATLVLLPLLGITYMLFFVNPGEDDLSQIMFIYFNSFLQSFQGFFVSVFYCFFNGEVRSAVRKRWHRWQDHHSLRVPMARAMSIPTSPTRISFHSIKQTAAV
T2 sequence (P24387 whole entry): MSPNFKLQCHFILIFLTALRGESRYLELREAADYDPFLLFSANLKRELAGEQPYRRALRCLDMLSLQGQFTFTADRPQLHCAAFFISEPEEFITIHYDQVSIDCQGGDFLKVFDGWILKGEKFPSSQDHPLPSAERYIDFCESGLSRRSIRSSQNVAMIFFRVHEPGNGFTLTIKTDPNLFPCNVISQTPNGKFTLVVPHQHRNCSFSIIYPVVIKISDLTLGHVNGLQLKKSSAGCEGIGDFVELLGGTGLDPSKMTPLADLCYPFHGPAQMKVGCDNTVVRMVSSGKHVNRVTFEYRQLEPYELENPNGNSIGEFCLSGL
The assay is described as follows: activators of CRF receptor 2 with binding protein – uHTS hits, confirmation (AID 602473). It counts as functional. Conditions: read-out: EC50_Mean.

Assay [3] can be described thus: cytotoxicity toward NIH3T3 fibroblasts, dose response, counter-screen, cell-based, ATP luminescence, mouse fibroblasts (AID 2010).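 Further: cells exposed to compound for about 90 hours before reading.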 It counts as functional.
A short description of assay [4]: inhibitors of intracellular T. cruzi replication, confirmation, NIH3T3 host cells, beta-gal luminescence (AID 2044).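 Further: intracellular parasites grown in NIH/3T3 mouse fibroblasts as host cells; luminescent beta-galactosidase reporter signal from transgenic T. cruzi replicating inside host cells; inhibitors lower the luminescence signal.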 It counts as functional, cell-based.
Assay [5] has as its target T3, Heat shock factor protein 1 (Mus musculus, UniProt P38532).
T3 sequence (P38532 whole entry): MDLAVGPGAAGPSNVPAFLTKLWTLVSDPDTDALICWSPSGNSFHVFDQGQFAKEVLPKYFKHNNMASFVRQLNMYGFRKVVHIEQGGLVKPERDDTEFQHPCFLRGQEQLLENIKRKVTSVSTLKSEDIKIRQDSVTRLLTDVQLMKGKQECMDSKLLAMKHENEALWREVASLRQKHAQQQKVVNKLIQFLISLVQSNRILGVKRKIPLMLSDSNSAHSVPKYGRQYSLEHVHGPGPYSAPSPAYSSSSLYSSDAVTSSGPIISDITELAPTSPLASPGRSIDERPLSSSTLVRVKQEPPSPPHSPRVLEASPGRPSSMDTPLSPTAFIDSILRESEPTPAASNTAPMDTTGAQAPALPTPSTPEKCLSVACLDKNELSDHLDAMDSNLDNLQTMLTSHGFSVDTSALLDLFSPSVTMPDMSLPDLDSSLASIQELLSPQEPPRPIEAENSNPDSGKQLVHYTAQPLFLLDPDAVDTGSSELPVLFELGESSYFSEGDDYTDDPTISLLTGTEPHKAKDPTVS
The assay is described as follows: HSF1 potentiators in luciferase reporter cells, confirmation, cell-based, NIH3T3, luminescence, dose retest (AID 435004).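 Further: stress induced by proteasome inhibitor MG132 added 30 min after compound; luciferase reporter driven by HSF1 response element in NIH3T3 cells; actives raise luminescence as potentiators of the MG132 stress response.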 The assay is classed as functional.

SMILES strings stand for the structures. Active and inactive are the calls of the source. No stated cut-off is given here; in the data, actives have a measured EC50 and inactives only a lower limit.

`Cn1c(O)cc(=O)nc1SCC(=O)Nc1ccc(Cl)cc1`: the EC50 is > 150 µM (not active) in the assay with Streptococcus and 29.9 µM (active) in assay [1].
For the compound `COc1ccc(C#Cc2ccc3c(=O)c4ccccc4n(C)c3c2)cc1`, the EC50 is 102 µM (active) in the assay with Streptococcus, 10.3 µM (active) in assay [1] and 110 µM (active) at Streptokinase A.
For `Cc1ccc(NS(=O)(=O)c2ccc(C(=O)N3CC(C)OC(C)C3)cc2)cc1` (centres undefined), the EC50 in assay [2] is 8.95 µM (active).
Consider `Cc1cnc(NC(=O)CSc2ncc(-c3ccccc3)n2Cc2ccco2)s1`, for which the EC50 in assay [2] was 5.51 µM (active).
Turning to `Cc1cccc(CN2CCCC(C(=O)c3ccc4c5c(cccc35)CC4)C2)n1` (centres undefined), the EC50 in the assay with Streptococcus was > 150 µM (not active); in assay [1], 15 µM (active); at Streptokinase A it was > 150 µM (not active).
Take `Cc1ccc(C(=N)NOC(=O)N2CCOCC2)cc1`: the EC50 is > 60 µM (not active) in assay [3] and 1.95 µM (active) in assay [4].
As to `Cc1ccc2ccc(C(Nc3cccc(C(F)(F)F)c3)c3cccnc3)c(O)c2n1` (centres undefined), the EC50 was 10.7 µM (active) in the assay with Streptococcus, 2.12 µM (active) in assay [1] and > 150 µM (not active) at Streptokinase A.
Regarding `Clc1ccc(C2=NCCN2)cc1`, the EC50 in assay [3] is > 60 µM (not active); in assay [4] it was 0.24 µM (active).
As for `Cc1ccc(C(=O)NC(=S)N(C)C2CCCCC2)cc1Br`, the EC50 in the assay on Streptococcus is 6.98 µM (active); in assay [3] it was 8.13 µM (active); in assay [4], 2.07 µM (active); in assay [1] it was 2.54 µM (active).
Consider `COc1ccc(-c2c[n+](-c3ccccc3)c3n2CCS3)cc1`, for which the values for the EC50 in assay [3] and in assay [4] were > 60 µM (not active) and 0.688 µM (active), respectively.
In the case of `Fc1ccc(-c2cc(C(F)(F)C(F)F)[nH]n2)cc1`, in assay [2], the EC50 is 6.17 µM (active).
For `Cc1nc2c(C(=O)NCc3ccc4c(c3)OCO4)cnn2c(C)c1Cc1ccc(F)cc1Cl`, the EC50 in the assay on Streptococcus was > 150 µM (not active); in assay [1] it was 9.62 µM (active); on Streptokinase A it was 42.9 µM (active).
Consider `CC12CC3(C)CC(C)(C1)CC(C(=O)NC1=NCCS1)(C2)C3`, for which the values for the EC50 (in the assay with Streptococcus; in assay [1]; at Streptokinase A) were > 150 µM (not active), 3.33 µM (active) and > 150 µM (not active), respectively.
Turning to `Cc1ccc2nc(NCCC(=O)O)nc(-c3ccccc3)c2c1`, the EC50 in assay [2] was 5.3 µM (active).
`COc1cccc(C2CC(c3cccs3)=NN2C(=O)CSc2nc(O)c3cnn(-c4ccc(F)cc4)c3n2)c1OC` (centres undefined): the EC50 in the assay with Streptococcus is 11.6 µM (active); in assay [1], 1.63 µM (active).
On to `CC(=O)Nc1ccc(NC(=O)CSc2nnc(NC(=O)c3ccc(Br)o3)s2)cc1`, for which the EC50 was 44 µM (active) in the assay on Streptococcus, 8.52 µM (active) in assay [1] and > 150 µM (not active) on Streptokinase A.
As to `Cc1cc(Cl)ccc1OCc1nc(-c2ccncc2)no1`, the EC50 is > 60 µM (inconclusive) in assay [3] and 2.43 µM (active) in assay [4].
With `c1ccc2c(c1)nc(Nc1ccc(N3CCCCC3)cc1)c1nncn12`, the EC50 was 91.3 µM (active) in the assay on Streptococcus, 6.13 µM (active) in assay [1] and > 150 µM (not active) at Streptokinase A.
With `O=C(CSc1nnc(-c2cccs2)o1)N1CCCc2ccccc21`, the EC50 in assay [5] is > 260 µM (inactive).
Take `O=C1NC(=O)N(Cc2ccccc2)C(=O)/C1=C/NNC(=O)c1ccccc1`: the EC50 in the assay on Streptococcus is 16.4 µM (active); in assay [1], 9.3 µM (active); on Streptokinase A, > 150 µM (not active).
Consider `CCOC(=O)CC(NC(=O)CCS(=O)(=O)c1ccc2c(c1)n(C)c(=O)c(=O)n2C)c1ccc(C)cc1` (centres undefined), for which the EC50 (in the assay with Streptococcus; in assay [1]; at Streptokinase A) was > 150 µM (not active) throughout.
With `COc1ccc(OC)c(N/C(C)=C/C(=O)c2ccccc2)c1`, the EC50 was > 60 µM (not active) in assay [3] and 2.49 µM (active) in assay [4].
Regarding `Cc1cccc(C)c1NC(=O)CN(C)CC(=O)Nc1sc2c(c1C(N)=O)CCC2`, the EC50 (in the assay on Streptococcus; in assay [1]; on Streptokinase A) was > 150 µM (not active) in each case.
On to `FC(F)(F)c1cccc(CNC2c3ccccc3-c3ccccc32)c1`, for which the EC50 with Streptococcus was > 150 µM (not active); in assay [1], 22.8 µM (active); on Streptokinase A, 19 µM (active).
With `O=C(CSc1nc[nH]n1)c1cccc([N+](=O)[O-])c1`, the EC50 in assay [5] is > 260 µM (inactive).
For the compound `c1ccc(-c2nnc(-c3c[nH]c4ccccc34)nc2-c2ccccc2)cc1`, the EC50 in the assay on Streptococcus is 68.7 µM (active); in assay [1], 14.7 µM (active); at Streptokinase A it was 20.1 µM (active).
Take `CN(C)CCN(C(=O)c1ccc(S(=O)(=O)N(C)c2ccccc2)cc1)c1nc2cc3c(cc2s1)OCO3`: the results for the EC50 in assay [3] and in assay [4] were > 60 µM (not active) and 0.145 µM (active), respectively.
As for `OC1(C#Cc2c(-c3ccsc3)oc3ccc(N4CCOCC4)cc23)CCCCC1`, the EC50 in the assay on Streptococcus is 15.3 µM (active); in assay [1] it was 6.92 µM (active); at Streptokinase A it was 54.6 µM (inconclusive).
Take `COc1ccc2[nH]c(CN3CCN(CCC(C)C)C(CCO)C3)c(C)c2c1` (centres undefined): the EC50 in assay [3] is > 60 µM (not active); in assay [4] it was 0.648 µM (active).
Take `Cc1cc(C)cc(C(=O)NC2C(=O)N3C(C(=O)O)=C(CSc4nnc(C)s4)CSC23)c1` (centres undefined): the EC50 in the assay with Streptococcus was 1.62 µM (active); in assay [1], 0.512 µM (active); on Streptokinase A it was > 150 µM (not active).
Regarding `COCCn1c(-c2cc(OC)c(OC)c(OC)c2)nc2oc3cc(OC)ccc3c(=O)c2c1=O`, the EC50 (in the assay with Streptococcus; in assay [1]; at Streptokinase A) was > 150 µM (not active) throughout.
Turning to `FC(F)(F)c1cccc(Cn2nnnc2-c2cc(Cl)cc(Cl)c2)c1`, the EC50 in assay [5] was > 260 µM (inactive).
`C#CCN(N(C)c1ncc(C(F)(F)F)cc1Cl)S(=O)(=O)c1ccc2ccccc2c1`: in assay [2], the EC50 is > 53 µM (inactive).
Consider `CCOP(=O)(C(NC(=O)c1ccccc1Cl)=C(Cl)Cl)c1ccccc1` (centres undefined), for which the EC50 in assay [5] was > 260 µM (inactive).
For the compound `C/C(=N\NC(=S)Nc1ccc(C)cc1)c1cccc(N)c1`, the EC50 in assay [2] is > 53 µM (inactive).
Consider `Cc1cc(C)c(COc2ccc(/C=N/n3c(C)nnc3S)cc2)c(C)c1`, for which the EC50 with Streptococcus was 12.2 µM (active); in assay [1], 4.01 µM (active); on Streptokinase A, 12 µM (active).
As to `CCOC(=O)c1csc(N/N=C2\CCCc3ccccc32)n1`, the EC50 in the assay on Streptococcus was 16 µM (active); in assay [1] it was 9.3 µM (active); on Streptokinase A it was > 150 µM (not active).
On to `Cc1ccc(S(=O)(=O)NC(C(=O)O)c2ccccc2)cc1` (centres undefined), for which, in assay [2], the EC50 is > 53 µM (inactive).
